≈ marks a conversion by molar mass, not a printed value.
Columns and labels:
[1] = tested on: lymphoma cells of mice; conditions: cited from earlier work
[2] = tested on: Staphylococcus aureus CNCM 53154; assay: Bactericidal activity (MBC), strain 5; type: cell-based; conditions: CNCM53154, 20 min, strain 5, 20 minutes of contact, read-out: Minimum bactericidal concentration (MBC)
Description: (§1) The bactericidal activity of the products according to the invention has been analyzed on various strains by the method described hereafter:
(§2) A bacterial inoculum is placed in contact with different dilutions of the product to be tested, and this for a limited period of time. At the end of contact, an aliquot part of the mixture bacterial suspension/product is deposited on the surface of an agar culture medium containing an agent neutralizing the antibacterial activity of the product. The bactericidal concentration retained is the smallest concentration of the product from which bacteria stop growing. Said concentration is expressed in μg/ml.
(§3) The bacterial strains selected for the analysis are:
5--Staphylococcus aureus CNCM 53154.
(§4) The second strain is supported on a Worgel Fergusson medium, the other strains being supported on Tryptic Soy Agar-Difco (TSA) commercialized by Difco.
(§5) After a 24-hour culture period at 37° C., the microbial growth is collected by means of glass beads and of 10 ml of diluent containing 1 g of tryptone and 8.5 g of sodium chloride in 1000 ml of distilled water. The formed suspension is stirred and the percentage of light transmission at 620 nm is measured with a spectrophotometer:
(§6) The bacterial inoculum corresponds to a 1/20th dilution of this bacterial suspension.
(§7) Plates equipped with cupules receive different dilutions of the product to be analyzed. These dilutions are placed in contact with the different bacterial suspensions by means of a multiple-center inoculator. After 20 minutes of contact, aliquot parts are transferred by means of said inoculator on the surface of an agar medium (TSA) in Petri dishes, containing an activity-neutralizing agent, namely 20 g of lubrol W, 25 g of Tween 80 and 2.5 g of sodium thiosulfate in 1000 ml of TSA (Difco). The efficiency of the neutralizing agent is controlled for each product to be analyzed by depositing on the surface of the culture medium an aliquot part of the dilution of the product to be analyzed. After drying, the corresponding inoculum is deposited in the same place. An inoculum control is performed on an agar medium with or without neutralizing agent. Readings are taken after 48 hours of incubation at 37° C.

[3] = tested on: Encapsulated klebsiella pneumoniae R030; assay: Bactericidal activity (MBC), strain 2; type: cell-based; conditions: 20 min, strain 2, 20 minutes of contact, read-out: Minimum bactericidal concentration (MBC)
Description: as §1, §2, §3
2--Encapsulated klebsiella pneumoniae R030;
as §4, §5, §6, §7

[4] = Acute toxicity by oral route in mice; conditions: mouse, in vivo, per os, male CD1 mice, 14 days observation
Procedure: Acute toxicity was tested by oral route in mice. This test was carried out with male mice of CD1 strain, obtained from the Charles Reever breeding farm. Each batch was composed of 5 animals of body weight varying between 24 and 30 g kept in the same cage. The animals were kept fasting for 6 hours before the treatment. For every test, the product, placed in suspension in a 10% solution of gum arabic, was administered by forcible feeding with an oesophageal probe. Food was then served to the animals 4 hours after the forcible feeding and the animals were kept under observation for a period of 14 days after the administration. During that period, the death rate is recorded for each batch of animals used in the experiment and, wherever possible, the LD50 is determined by the method of J. T. Litchfield and F. Wilcoxon, J. Pharmacol. 1949, 95, 99-113.
The results are given in mg of substance tested per kg of body weight. They are compiled in Table III below.

[5] = tested on: guinea-pig skin; assay: Skin sensitization test in the guinea-pig; type: in vivo; conditions: one week treatment after two weeks' rest
Procedure: The tolerance of the products according to the invention was tested in the guinea-pig. The animals are shorn on both sides of the middle line of the back, the shearing being kept up every other day. Batches of 6 animals receive, on the shorn part, 0.2 ml of an aqueous or alcoholic solution of the product according to the invention. When these products are in alcoholic solution, one control batch of animals receives the alcohol on one side. The skin sensitization test is performed on the same animals after two weeks' rest. The treatment lasts one week, it is identical to the preceding one. The evaluation is based on the same criteria and on the same scale as used to determine the local tolerance.

[6] = tested on: Escherichia Coli CNCM 54125; assay: Bactericidal activity (MBC), strain 1; type: cell-based; conditions: 20 min, strain 1, 20 minutes of contact, read-out: Minimum bactericidal concentration (MBC)
Description: as §1, §2, §3
1--Escherichia Coli CNCM 54125;
as §4, §5, §6, §7

[7] = tested on: guinea-pig; assay: Phototoxic or photoallergic effect on the guinea-pig; type: in vivo
Description: The products according to the invention have also been tested for a phototoxic or photoallergic effect on the guina-pig. The technique used is that of J. Unkovic, G. Mazue and J. Girard, in "Sciences et Techniques de l'Animal de Laboratoire", 1983, 8 (3), 149-160. This is an adaptation of the techniques described by L. C. Harber et al., Arch. Dermatol., 1967, 96, 646-656 and L. J. Vinson et al., Arch. Dermatol., 1966, 17, 123-130.

[8] = tested on: Pseudomonas aeruginosa CNCM A22; assay: Bactericidal activity (MBC), strain 3; type: cell-based; conditions: CNCMA22, 20 min, strain 3, 20 minutes of contact, read-out: Minimum bactericidal concentration (MBC)
Description: as §1, §2, §3
3--Pseudomonas aeruginosa CNCM A22;
as §4, §5, §6, §7

[9] = tested on: Streptococcus faecalis CNCM 5855; assay: Bactericidal activity (MBC), strain 4; type: cell-based; conditions: Enterococcus faecalis, CNCM5855, 20 min; strain 4, 20 minutes of contact; read-out: Minimum bactericidal concentration (MBC)
Description: as §1, §2, §3
4--Streptococcus faecalis CNCM 5855;
as §4, §5, §6, §7

[10] = tested on: guinea-pig skin; assay: Preliminary skin tolerance in the guinea-pig; type: in vivo; conditions: 0.2 ml on shorn skin once a day, six days out of seven, three weeks
Procedure: The tolerance of the products according to the invention was tested in the guinea-pig. The animals are shorn on both sides of the middle line of the back, the shearing being kept up every other day. Batches of 6 animals receive, on the shorn part, 0.2 ml of an aqueous or alcoholic solution of the product according to the invention. When these products are in alcoholic solution, one control batch of animals receives the alcohol on one side.
To study the preliminary skin tolerance, the treatment is applied once a day, six days out of seven, for three weeks. The observations made of the skin are concerned with the presence of erythema, skin eruptions or hyperkeratosis, the intensity of which is graduated according to a preset scale.

[11] = tested on: Candida parakruzei 3918; assay: Antifungal activity (MFC), strain 3; type: cell-based; conditions: 20 min; yeast strain 3; read-out: Minimum fongicidal concentration (MFC)
Description: as §2, §7
(§8) The antifungal activity of the products according to the invention was also determined with the aforedescribed method.
(§9) The fungal strains selected for the analysis are:
3--Candida parakruzei 3918;
(§10) These strains are supported on a Sabouraud Dextrose agar medium commercialized by Difco; the technique used is the same as that used in the analysis of the antibacterial activity. After 48 hours of culture at 37° C., the microbial growth is collected with glass beads and 5 ml of diluent containing 1 g of tryptone and 8.5 g of sodium chloride in 1000 ml of distilled water; 5 ml of the diluent are then added. […] A 1/100th dilution of this suspension, observed between slides under a microscope 40-lens, should show 10 cells per frame, this corresponding to 1,000,000 yeasts per ml.

[12] = tested on: Candida tropicalis 3834; assay: Antifungal activity (MFC), strain 2; type: cell-based; conditions: 20 min; yeast strain 2; read-out: Minimum fongicidal concentration (MFC)
Description: as §2, §7, §8, §9
2--Candida tropicalis 3834;
as §10

[13] = tested on: Candida albicans CNCM 1180; assay: Antifungal activity (MFC), strain 1; type: cell-based; conditions: 20 min; yeast strain 1; read-out: Minimum fongicidal concentration (MFC)
Description: as §2, §7, §8, §9
1--Candida albicans CNCM 1180;
as §10

[14] = tested on: Torulopsis glabrata 072023; assay: Antifungal activity (MFC), strain 4; type: cell-based; conditions: 20 min; yeast strain 4; read-out: Minimum fongicidal concentration (MFC)
Description: as §2, §7, §8, §9, §10

Row | SMILES | effect on the cellular division of the lymphoma cells [1] | MBC [2] [µg/mL] | MBC [3] [µg/mL] | LD50 at 336 h [4] [mg/kg] | products found to have a sensibilizing effect [5] | MBC [6] [µg/mL] | products found to have a phototoxic or photoallergic effect [7] | MBC [8] [µg/mL] | MBC [9] [µg/mL] | products found to have a bad tolerance [10] | MFC [11] [µg/mL] | MFC [12] [µg/mL] | MFC [13] [µg/mL] | MFC [14] [µg/mL]
1 | OCCc1ccc2ccccc2c1 [2-naphtyl ethanol] | inhibits the cellular division of the lymphoma cells of mice |  |  |  |  |  |  |  |  |  |  |  |  | 
2 | CN(C)CCC(CO)c1cccc2ccccc12 (centres unmarked) [SR 42 643 A] |  | 1000 (≈ 4.11 mM) | 5000 (≈ 20.5 mM) | 400 | None | 5000 (≈ 20.5 mM) | None | 1000 (≈ 4.11 mM) | 2000 (≈ 8.22 mM) | None |  |  |  | 
3 | OCC(CCN1CCCCC1)c1cccc2ccccc12 (centres unmarked) [SR 43 077 A] |  | 600 (≈ 2.12 mM) | 600 (≈ 2.12 mM) | 300 to 400 | None | 600 (≈ 2.12 mM) | None | 800 (≈ 2.82 mM) | 600 (≈ 2.12 mM) | None | 1000 (≈ 3.53 mM) | 1000 (≈ 3.53 mM) | 1000 (≈ 3.53 mM) | 5000 (≈ 17.6 mM)
4 | Cl.OCC(CCCCCCN1CCCCC1)c1cccc2ccccc12 (centres unmarked) [SR 43 157 A, 8-piperidino-2-(1-naphthyl)-octanol hydrochloride] |  | 200 | 200 |  | None | 200 | None | 100 | 200 | None | 300 | 300 | 300 | 1000
